The results in this text go back to the Deep4Chem optical property database.

The series is described as follows: photoluminescence quantum yield (fraction); solvent given as SMILES.

Regarding `COC(=O)/C=C/C1=CC2=C(c3c(C)cc(C)cc3C)c3cc(/C=C/C(=O)OC)cn3[B-](F)(F)[N+]2=C1`, the photoluminescence quantum yield (in ClCCl) amounted to 0.36.

`CCOC(=O)c1cc(C(=O)OCC)c2cccc(O)c2n1` yielded a photoluminescence quantum yield (in CCO) of 0.17.

The compound `CC(C)CN1C(=O)/C(=C/c2ccc([N+](=O)[O-])cc2)C=C1c1ccccc1` displayed a photoluminescence quantum yield (in C1COCCO1) of 0.033.

For `CN(C)c1ccc(C#Cc2ccc(C=O)cc2)cc1`, the photoluminescence quantum yield runs as follows: (in C1CCCCC1) 0.363; (in C1CCOC1) 0.131; (in C1COCCO1) 0.254; (in CC1CCCO1) 0.223; (in CC#N) 0.012; (in CC(C)=O) 0.047. Besides, the photoluminescence quantum yield runs as follows: (in CC(C)CC(C)(C)C) 0.044; (in CC(C)O) 0.017; (in CCCCCCCCCCCCCCCC) 0.056; (in CCCCCCCCCCCCCCCCCl) 0.093; (in CCOC(C)=O) 0.174; (in CCOCC) 0.201. For the same compound, the photoluminescence quantum yield is 0.046 (in CN(C)C=O), 0.006 (in CO), 0.037 (in CS(C)=O) and 0.337 (in Cc1ccccc1).

For the compound `CCOC(=O)c1ccccc1-c1c2ccc(=O)cc-2oc2cc(OC(=O)[C@H](CO[Si](C)(C)C(C)(C)C)NC(=O)OC(C)(C)C)ccc12`, the photoluminescence quantum yield was found to be 0.003 (in C1CCOC1), 0.003 (in CC#N), 0.048 (in CCO) and 0.01 (in CS(C)=O).

Turning to `CCCCc1ccc(-n2c3c4cc(F)ccc4nc(-c4ccc(OC)cc4)c3c3c2c2c(-c4ccc(OC)cc4)nc4ccc(F)cc4c2n3-c2ccc(CCCC)cc2)cc1`, under “in ClC(Cl)Cl”, the photoluminescence quantum yield is 0.19.

Regarding `O=c1cc(-c2nc3ccccn3c2NC2CCCCC2)occ1OCc1ccccc1`, the photoluminescence quantum yield (in ClCCl) worked out at 0.209.

Regarding `CN(C)c1ccc(/C=C/c2nc3c4ccccc4c4ccccc4c3[nH]2)cc1`, the photoluminescence quantum yield turned out to be 0.055 (in C1CCOC1); 0.176 (in C1COCCO1); 0.195 (in CC1CCCCC1); 0.058 (in CC#N); 0.048 (in CCOC(C)=O); 0.147 (in CCOCC). Also, the photoluminescence quantum yield runs as follows: (in CN(C)C=O) 0.04; (in COC(C)=O) 0.03; (in CS(C)=O) 0.067; (in Cc1ccccc1) 0.114; (in ClC(Cl)Cl) 0.035.

For the compound `CCN(CC)c1ccc2cc(-c3nc4cc(C(=O)Nc5ccccc5Cl)ccc4o3)c(=O)oc2c1`, the photoluminescence quantum yield (in ClCCl) is 0.23.

Compound `C#Cc1ccc(-c2c3nc(c(-c4ccc(C#C)cc4)c4ccc([nH]4)c(-c4cc(C(C)(C)C)cc(C(C)(C)C)c4)c4cc(c(-c5cc(C(C)(C)C)cc(C(C)(C)C)c5)c5ccc2[nH]5)C=N4)C=C3)cc1` gave a photoluminescence quantum yield (in ClCCl) of 0.0269.

The compound `C(=C\c1ncc2ccccc2n1)/c1ccc(N2CCCCC2)cc1` showed a photoluminescence quantum yield (in ClCCl) of 0.21.

Regarding `Nc1cccc2c1C(=O)c1ccccc1-2`, the photoluminescence quantum yield turned out to be 0.031 (in C1CCCCC1), 0.057 (in CC#N), 0.068 (in CCO) and 0.055 (in c1ccccc1).

The compound `C[Si]1(C)c2ccc(-c3ccc(-c4cccs4)s3)cc2C=Cc2cc(-c3ccc(-c4cccs4)s3)ccc21` came in with a photoluminescence quantum yield (in ClCCl) of 0.1.

`Fc1c(-n2c3ccccc3c3ccccc32)c(F)c(-n2c3ccccc3c3ccccc32)c(-c2nnc(-c3ccccc3)o2)c1-n1c2ccccc2c2ccccc21` returned a photoluminescence quantum yield (in Cc1ccccc1) of 0.06.

With `COc1ccc(-c2cc3c(ccc(=O)n3C)s2)cc1`, the photoluminescence quantum yield (in CC#N) was 0.42 and the photoluminescence quantum yield (in ClCCl) was 0.83.

Consider `COc1c2ccccc2c(OC)c2c1c1ccccc1n2C`, for which the photoluminescence quantum yield is, setting by setting: (in C1CCCCC1) 0.46; (in CC#N) 0.55; (in CO) 0.39; (in ClCCl) 0.41.

The compound `COc1ccc(C#Cc2ncc(-c3ccccc3)o2)cc1OC` returned a photoluminescence quantum yield (in ClCCl) of 0.04.

The compound `COc1ccc(-c2nc(-c3ccc(OC)cc3)n3ccccc23)cc1` showed a photoluminescence quantum yield (in ClC(Cl)Cl) of 0.22.

`c1ccc(-c2nc(-c3ccccc3)nc(-c3ccc(-n4c5ccccc5c5ccc6c(c7ccccc7n6-c6ccccc6)c54)cc3)n2)cc1` registered a photoluminescence quantum yield (in O=P(c1ccccc1)(c1ccccc1)c1ccc2oc3ccc(P(=O)(c4ccccc4)c4ccccc4)cc3c2c1) of 0.9.

In turn, `CCCCCCN1C(=O)c2cccc3c(-c4ccc(-c5cc(-c6cccc7ccccc67)nn5-c5ccccc5)s4)ccc(c23)C1=O` came in with a photoluminescence quantum yield (in ClCCl) of 0.16.

As for `CN(C)c1cccc2c1C(=O)c1ccccc1-2`, the photoluminescence quantum yield amounted to 0.0016 (in C1CCCCC1), 0.0027 (in CC#N), 0.004 (in CCO) and 0.0024 (in c1ccccc1).

Compound `CC[C@H](C)COc1ccc(C2=C3C(C)=C(c4ccc5ccc6cccc7ccc4c5c67)C(C)=[N+]3[B-](F)(F)n3c(C)c(-c4ccc5ccc6cccc7ccc4c5c67)c(C)c32)cc1` showed a photoluminescence quantum yield (in ClCCl) of 0.5.

`CCCCCCCCCCCCOc1cc2c3c(ccc4c5c(SCCCCCCCCCCCC)cc6c7c(ccc(c1c34)c75)C(=O)N(C1CCCCC1)C6=O)C(=O)N(C1CCCCC1)C2=O` came in with a photoluminescence quantum yield (in ClC(Cl)Cl) of 0.39.

For `CCC1=C(C)C2=C(C)c3cc(I)cn3[B-](F)(F)[N+]2=C1C`, the photoluminescence quantum yield was 0.13 (in C1CCCCC1); 0.087 (in CC(C)=O); 0.095 (in CCO); 0.097 (in CCOC(C)=O); 0.086 (in CO); 0.075 (in OCC(F)(F)F).

Consider `Cc1cc2nc3cc(C)c(N)cc3[n+](-c3ccccc3)c2cc1N`, for which the photoluminescence quantum yield was found to be 0.292 (in CCO) and 0.058 (in O).

For the setting “in CO”, `C/C(=N\Nc1ccc(C#N)cc1)c1cccc(/C(C)=N/Nc2ccc(C#N)cc2)c1` gave a photoluminescence quantum yield of 0.14.
